Where two headings read alike, the source gives them in different places. Each block holds one compound with its values, some of them ahead of it.
What was measured:
isomaltase = molecular target: T1, isomaltase (Rattus norvegicus, UniProt P23739); assay: Inhibition of rat intestinal isomaltase; assay type: biochemical; settings: rat intestine; read-out: IC50 α-glucosidase isomaltase
T1 construct: from tissue; host or cells: rat small intestine brush border membranes
Excerpt: (§1) The α-glucosidases of rice and of yeast, as well as the β-glucosidases of sweet almond and Caldocellum saccharolyticum are obtained from Sigma Chemical Co. ‘Brush border’ membranes prepared from rat small intestine according to Kessler's method (Kessler, M.; Acuto, O.; Strelli, C.; Murer, H.; Semenza, G. A. Biochem. Biophys. Acta 1978, 506, 136) were used as a source of intestinal maltase, sucrase and isomaltase. The activities of rice α-glucosidase as well as of the intestinal glucosidases were determined using an appropriate disaccharide as substrate. The D-glucose thus released was assayed by colorimetry using the Wako glucose B-test (Wako Pure Chemical Ind., Japan). The activities on the other glycosidases were determined using the appropriate p-nitrophenyl glycoside as a substrate with the optimum pH of each enzyme. The reaction is stopped by adding 400 mM Na2CO3. The p-nitrophenol thus released was assayed by spectrophotometry at 400 nm. For the β-glucocerebrosidase, the technique used is that described in Kato, A.; Kato, N.; Kano, E.; Adachi, I.; Ikeda, K.; Yu, L.; Okamoto, T.; Banba, Y.; Ouchi, H.; Takahata, H.; Asano, N. Biological properties of D- and L-1-deoxyazasugars. J. Med. Chem. 2005, 48, 2036-2044.

α-Glucosidase = molecular target: T2, α-Glucosidase (Homo sapiens, UniProt P10253); assay: α-Glucosidase activity in Gaucher fibroblasts; assay type: cell-based
T2 construct: endogenous in cells; host or cells: fibroblasts of Gaucher patients (type 1, 2, 3)
Description: (§2) The tests were carried out under the conditions described in: Sawkar, A. R.; Cheng, W.-C.; Beutler, E.; Wong, C.-H.; Balch, W. E.; Kelly, J. W. Chemical chaperones increase the cellular activity of N370S beta-glucosidase: a therapeutic strategy for Gaucher's disease. Proc. Natl. Acad. Sci. U.S.A. 2002, 99, 15428-15433.

maltase = assay: Inhibition of rat intestinal maltase; assay type: biochemical; settings: rat intestine; read-out: IC50 α-glucosidase maltase
Excerpt: as §1

rice α-glucosidase = molecular target: T3, rice α-glucosidase (Oryza sativa subsp. japonica, UniProt Q653V7); assay: Inhibition of rice α-glucosidase (disaccharide substrate, glucose colorimetry); assay type: biochemical; settings: rice enzyme
T3 construct: purchased Sigma Chemical Co
Excerpt: as §1

[1] = molecular target: β-glucosidase sweet almond; assay: Inhibition of sweet almond β-glucosidase; assay type: biochemical
Excerpt: as §1

sucrase = molecular target: T4, sucrase (Rattus norvegicus, UniProt P23739); assay: Inhibition of rat intestinal sucrase; assay type: biochemical; settings: rat intestine; read-out: IC50 α-glucosidase sucrase
T4 construct: from tissue; host or cells: rat small intestine brush border membranes
Excerpt: as §1

[2] = molecular target: T5, β-glucosidase Caldocellum saccharolyticum (Caldicellulosiruptor saccharolyticus, UniProt P10482); assay: Inhibition of Caldocellum saccharolyticum β-glucosidase; assay type: biochemical
T5 construct: purchased Sigma Chemical Co
Excerpt: as §1

α-Mannosidase = molecular target: T6, α-Mannosidase (Homo sapiens, UniProt O00754); assay: α-Mannosidase activity in Gaucher fibroblasts; assay type: cell-based
T6 construct: endogenous in cells; host or cells: fibroblasts of Gaucher patients (type 1, 2, 3)
T6 sequence (O00754 50-1011): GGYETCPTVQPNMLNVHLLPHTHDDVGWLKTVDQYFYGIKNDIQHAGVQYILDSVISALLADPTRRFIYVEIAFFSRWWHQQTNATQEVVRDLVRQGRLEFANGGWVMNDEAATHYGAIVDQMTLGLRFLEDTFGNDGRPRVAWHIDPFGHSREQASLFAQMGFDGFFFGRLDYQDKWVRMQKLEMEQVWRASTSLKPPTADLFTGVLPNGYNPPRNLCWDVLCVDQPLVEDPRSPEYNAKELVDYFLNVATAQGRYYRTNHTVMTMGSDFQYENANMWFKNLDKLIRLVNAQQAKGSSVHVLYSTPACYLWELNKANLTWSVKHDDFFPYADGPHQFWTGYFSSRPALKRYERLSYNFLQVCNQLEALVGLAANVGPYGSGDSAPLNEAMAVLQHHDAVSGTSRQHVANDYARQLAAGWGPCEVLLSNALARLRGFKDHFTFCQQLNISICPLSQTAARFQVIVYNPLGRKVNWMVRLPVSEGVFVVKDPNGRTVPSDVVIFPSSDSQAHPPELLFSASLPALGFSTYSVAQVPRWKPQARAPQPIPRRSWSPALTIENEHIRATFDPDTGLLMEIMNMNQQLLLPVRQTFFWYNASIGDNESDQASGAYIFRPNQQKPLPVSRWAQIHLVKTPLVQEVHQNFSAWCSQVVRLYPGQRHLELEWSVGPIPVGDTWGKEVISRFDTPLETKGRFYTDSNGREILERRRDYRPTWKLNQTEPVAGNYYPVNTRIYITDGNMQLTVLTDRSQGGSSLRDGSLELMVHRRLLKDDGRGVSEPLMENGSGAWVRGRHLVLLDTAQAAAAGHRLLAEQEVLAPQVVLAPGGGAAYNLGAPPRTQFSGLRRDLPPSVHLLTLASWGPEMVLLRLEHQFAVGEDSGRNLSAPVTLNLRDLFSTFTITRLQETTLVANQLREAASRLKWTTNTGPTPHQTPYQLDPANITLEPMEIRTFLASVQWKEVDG
Description: as §2

[3] = system: other lysosomal glycosidases; assay: Effects on other lysosomal glycosidases in Gaucher fibroblasts; assay type: cell-based, human; settings: for Effects on the activity of other glycosidases: Gaucher fibroblasts, Table 2
β-glucocerebrosidase [4] = assay: Intracellular β-glucocerebrosidase activity in type 1 Gaucher fibroblasts; assay type: cell-based, human; settings: factor of residual β-glucocerebrosidase activity, 10 nM
α-glucosidases = assay: Activity on the different α-glucosidases tested; assay type: biochemical
Excerpt: as §1

[5] = molecular target: T7, human β-glucocerebrosidase (Homo sapiens, UniProt P04062); assay: Inhibition tests on human β-glucocerebrosidase; assay type: biochemical; settings: for IC50: read-out: IC50 β-glucocérébrosidase
T7 sequence (P04062 40-536): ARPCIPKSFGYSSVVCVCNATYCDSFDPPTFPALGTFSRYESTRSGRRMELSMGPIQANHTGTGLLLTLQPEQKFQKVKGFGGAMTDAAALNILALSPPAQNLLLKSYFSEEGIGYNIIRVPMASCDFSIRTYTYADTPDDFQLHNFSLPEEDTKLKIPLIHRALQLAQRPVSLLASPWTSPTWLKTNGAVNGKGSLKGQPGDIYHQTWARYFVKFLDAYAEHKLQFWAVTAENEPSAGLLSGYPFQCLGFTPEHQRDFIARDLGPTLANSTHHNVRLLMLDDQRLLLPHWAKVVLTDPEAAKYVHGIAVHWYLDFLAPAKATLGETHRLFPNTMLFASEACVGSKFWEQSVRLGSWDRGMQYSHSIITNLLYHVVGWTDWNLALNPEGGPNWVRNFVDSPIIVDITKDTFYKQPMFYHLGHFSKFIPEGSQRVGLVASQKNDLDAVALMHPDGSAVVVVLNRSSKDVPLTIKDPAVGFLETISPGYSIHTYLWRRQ

β-glucocerebrosidase [6] = assay: Intracellular β-glucocerebrosidase activity in type 3 Gaucher fibroblasts; assay type: cell-based, human; settings: factor of residual β-glucocerebrosidase activity, 10 nM
[7] = system: human β-glucocerebrosidase; assay: Intracellular β-glucocerebrosidase activity in fibroblasts of Gaucher patients (type 1, 2 or 3); assay type: cell-based; settings: fibroblasts type 1, 2 or 3; very low quantities
[8] = type 2 Gaucher fibroblasts, 50 μM

T5 sequence (P10482 whole entry): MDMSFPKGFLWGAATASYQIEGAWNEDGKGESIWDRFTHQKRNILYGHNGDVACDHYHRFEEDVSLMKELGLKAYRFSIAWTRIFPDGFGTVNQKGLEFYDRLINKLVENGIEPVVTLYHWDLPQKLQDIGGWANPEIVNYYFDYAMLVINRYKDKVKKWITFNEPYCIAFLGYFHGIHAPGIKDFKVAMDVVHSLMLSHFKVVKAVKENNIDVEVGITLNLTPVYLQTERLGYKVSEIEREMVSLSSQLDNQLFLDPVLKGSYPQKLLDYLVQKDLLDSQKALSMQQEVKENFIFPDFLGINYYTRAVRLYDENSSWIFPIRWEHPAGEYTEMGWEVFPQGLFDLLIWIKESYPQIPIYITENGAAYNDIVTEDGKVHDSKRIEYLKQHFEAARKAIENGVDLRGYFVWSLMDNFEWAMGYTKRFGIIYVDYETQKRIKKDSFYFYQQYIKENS
T3 sequence (Q653V7 34-885): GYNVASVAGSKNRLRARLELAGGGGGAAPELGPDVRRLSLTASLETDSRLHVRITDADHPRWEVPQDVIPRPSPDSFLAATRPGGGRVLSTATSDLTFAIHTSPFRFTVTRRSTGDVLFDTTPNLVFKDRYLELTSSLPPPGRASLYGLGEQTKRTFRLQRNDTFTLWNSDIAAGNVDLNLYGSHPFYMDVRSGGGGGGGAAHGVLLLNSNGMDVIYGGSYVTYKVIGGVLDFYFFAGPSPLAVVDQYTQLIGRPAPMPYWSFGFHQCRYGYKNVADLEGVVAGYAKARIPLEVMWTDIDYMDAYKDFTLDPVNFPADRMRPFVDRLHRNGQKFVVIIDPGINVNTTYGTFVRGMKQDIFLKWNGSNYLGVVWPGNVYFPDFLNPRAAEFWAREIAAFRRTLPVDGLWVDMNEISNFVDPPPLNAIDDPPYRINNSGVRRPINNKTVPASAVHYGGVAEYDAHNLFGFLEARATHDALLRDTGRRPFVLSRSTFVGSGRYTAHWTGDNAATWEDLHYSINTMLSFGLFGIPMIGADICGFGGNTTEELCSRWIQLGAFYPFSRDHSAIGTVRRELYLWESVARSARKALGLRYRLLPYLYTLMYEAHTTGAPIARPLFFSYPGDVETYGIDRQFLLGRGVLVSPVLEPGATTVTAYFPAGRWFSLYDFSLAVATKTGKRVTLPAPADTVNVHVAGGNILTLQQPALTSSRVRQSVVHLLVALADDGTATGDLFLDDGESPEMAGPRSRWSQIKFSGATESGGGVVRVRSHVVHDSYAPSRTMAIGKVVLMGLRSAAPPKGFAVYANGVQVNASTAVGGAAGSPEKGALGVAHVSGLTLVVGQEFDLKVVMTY
T4 sequence (P23739 1-1013 limits assumed): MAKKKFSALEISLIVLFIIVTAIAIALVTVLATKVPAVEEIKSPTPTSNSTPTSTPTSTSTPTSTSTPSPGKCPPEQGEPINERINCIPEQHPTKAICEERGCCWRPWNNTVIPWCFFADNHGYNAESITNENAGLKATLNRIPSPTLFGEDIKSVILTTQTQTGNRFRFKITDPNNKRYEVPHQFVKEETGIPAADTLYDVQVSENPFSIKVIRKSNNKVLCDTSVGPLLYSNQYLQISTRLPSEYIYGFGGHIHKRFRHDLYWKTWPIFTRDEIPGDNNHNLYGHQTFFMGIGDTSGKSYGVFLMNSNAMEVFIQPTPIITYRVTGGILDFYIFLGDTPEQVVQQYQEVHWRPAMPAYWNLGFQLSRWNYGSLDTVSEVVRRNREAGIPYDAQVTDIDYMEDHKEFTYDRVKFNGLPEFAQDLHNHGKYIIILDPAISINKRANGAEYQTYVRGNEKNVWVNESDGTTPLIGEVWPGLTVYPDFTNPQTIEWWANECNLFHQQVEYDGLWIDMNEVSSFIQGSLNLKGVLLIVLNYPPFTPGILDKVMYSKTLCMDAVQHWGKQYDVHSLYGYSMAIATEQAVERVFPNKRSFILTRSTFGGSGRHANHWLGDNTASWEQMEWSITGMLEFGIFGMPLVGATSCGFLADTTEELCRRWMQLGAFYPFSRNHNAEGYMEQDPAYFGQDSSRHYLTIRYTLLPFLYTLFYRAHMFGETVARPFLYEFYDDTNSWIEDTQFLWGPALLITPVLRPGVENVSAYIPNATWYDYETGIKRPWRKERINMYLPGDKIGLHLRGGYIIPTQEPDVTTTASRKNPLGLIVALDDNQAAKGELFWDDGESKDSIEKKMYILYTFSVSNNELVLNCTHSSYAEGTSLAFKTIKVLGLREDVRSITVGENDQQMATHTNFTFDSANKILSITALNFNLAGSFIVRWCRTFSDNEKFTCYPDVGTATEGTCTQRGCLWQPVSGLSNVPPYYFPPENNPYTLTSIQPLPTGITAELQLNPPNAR
T4 sequence (P23739 1014-1841 limits assumed): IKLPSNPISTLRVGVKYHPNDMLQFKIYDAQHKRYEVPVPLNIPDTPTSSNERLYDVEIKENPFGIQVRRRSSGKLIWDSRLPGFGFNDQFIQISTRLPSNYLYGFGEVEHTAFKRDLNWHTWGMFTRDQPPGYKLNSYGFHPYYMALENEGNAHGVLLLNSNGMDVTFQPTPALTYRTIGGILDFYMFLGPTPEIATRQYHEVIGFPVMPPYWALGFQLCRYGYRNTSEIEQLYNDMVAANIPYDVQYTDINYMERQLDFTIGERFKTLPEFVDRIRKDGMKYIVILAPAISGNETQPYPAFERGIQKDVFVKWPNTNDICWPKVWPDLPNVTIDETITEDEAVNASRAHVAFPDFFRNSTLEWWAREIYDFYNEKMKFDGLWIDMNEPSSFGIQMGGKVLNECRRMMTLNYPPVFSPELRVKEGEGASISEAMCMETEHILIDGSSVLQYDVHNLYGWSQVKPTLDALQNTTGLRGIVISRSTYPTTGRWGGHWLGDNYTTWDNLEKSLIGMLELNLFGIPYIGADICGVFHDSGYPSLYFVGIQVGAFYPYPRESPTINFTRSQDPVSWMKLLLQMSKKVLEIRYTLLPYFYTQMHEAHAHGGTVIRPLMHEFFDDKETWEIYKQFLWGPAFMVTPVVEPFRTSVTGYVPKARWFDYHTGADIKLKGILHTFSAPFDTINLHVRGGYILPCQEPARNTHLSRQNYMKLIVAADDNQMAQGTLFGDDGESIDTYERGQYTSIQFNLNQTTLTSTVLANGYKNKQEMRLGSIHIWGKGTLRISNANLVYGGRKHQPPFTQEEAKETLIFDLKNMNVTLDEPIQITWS
T1 sequence (P23739 1-1013 limits assumed): as the sequence (P23739 1-1013 limits assumed) above
T1 sequence (P23739 1014-1841 limits assumed): as the sequence (P23739 1014-1841 limits assumed) above

Structure (SMILES): CCCCCCCCCN1C[C@H](O)[C@@H](O)[C@H](O)[C@H]1CO [2′, N-nonyl-1-deoxynojirimycin, reference compound]
IC50 (isomaltase): 0.23 µM
inhibition at 50 µM (α-Glucosidase; type 1 Gaucher fibroblasts, 50 μM): 70%
α-Glucosidase inhibition (α-Glucosidase; [8]): significant inhibition
α-Glucosidase inhibition (α-Glucosidase; type 3 Gaucher fibroblasts): significant inhibition
IC50 (maltase): 1.3 µM
IC50 (rice α-glucosidase): 0.08 µM
IC50 [1]: 150 µM
IC50 (sucrase): 0.66 µM
IC50 [2]: 80 µM
α-Mannosidase inhibition (α-Mannosidase; type 1 Gaucher fibroblasts): slight inhibition
α-Mannosidase inhibition (α-Mannosidase; [8]): slight inhibition
α-Mannosidase inhibition (α-Mannosidase; type 3 Gaucher fibroblasts): no inhibition
Effects on the activity of other glycosidases [3]: Marked effects

IC50 (isomaltase): > 1000 µM
α-Glucosidases inhibition (α-Glucosidase; type 1-3 Gaucher fibroblasts): no inhibition
IC50 (maltase): > 1000 µM
IC50 (rice α-glucosidase): > 1000 µM
IC50 [1]: 1.9 µM
IC50 (sucrase): > 1000 µM
IC50 [2]: 800 µM
IC50 ([5]; human enzyme): 0.0068 µM
times more active than N-nonyl-1-deoxynojirimycin 2′ ([5]; human β-glucocerebrosidase): 150 times
Ki ([5]; read-out: inhibition constant (Ki) human β-glucocerebrosidase): 0.002 µM
residual enzymatic activity of human β-glucocerebrosidase [7]: double
α-Mannosidase inhibition (α-Mannosidase; type 1-3 Gaucher fibroblasts): no inhibition
Structure (SMILES): CCCCCCCCC[C@H]1NC[C@@H](O)[C@H](O)[C@H]1O [Compound 1′a, α-1-C-nonyliminoxylitol]
Increase in the enzymatic activity (type 1 fibroblasts) (β-glucocerebrosidase [4]): 1.8
Increase in the enzymatic activity (type 1 fibroblasts) (β-glucocerebrosidase [4]; listed as drawing 105): ×1.8 to 10 nM
activity on the different α-glucosidases tested (α-glucosidases): no activity
Increase in the enzymatic activity (type 3 fibroblasts) (β-glucocerebrosidase [6]): 1.9
Increase in the enzymatic activity (type 3 fibroblasts) (β-glucocerebrosidase [6]; listed as drawing 105): ×1.9 to 10 nM
action on other lysosomal glycosidases ([3]; 10 nM): without inhibiting the action of other lysosomal glycosidases
Effects on the activity of other glycosidases [3]: No effect

Ki ([5]; human enzyme, Table 1, read-out: value of Ki β-glucocérébrosidase (in brackets)): 0.031 µM
IC50 ([5]; human enzyme): 0.012 µM
Structure (SMILES): CCCCCCCCCCCC[C@H]1NC[C@@H](O)[C@H](O)[C@H]1O [Compound 1′b]
